Source: ChEMBL document CHEMBL3616440, “Non-basic azolotriazinone MCHR1 antagonists for the treatment of obesity: An empirical brain-exposures-driven candidate selection for in vivo efficacy studies” (Bioorg Med Chem Lett, 2015)
Values belong to the compound of their own block, whether it stands above or below them.

Experiments:
[1] = Ratio of free drug level in brain of Sprague-Dawley rat assessed as 6-(4-chlorophenyl)-3-(4-(2-hydroxy-2-methylpropoxy)-3-methoxyphenyl)pyrrolo[1,2-f][1,2,4]triazin-4(3H)-one level at 3 mg/kg, po to Ki for rat MCHR1; format: ADME, organism-based; details: in vivo
Rattus norvegicus [2] = test: Antiobesity activity in Sprague-Dawley rat assessed as body weight reduction at 10 mg/kg, po qd after 4 days relative to control; format: functional; details: 96 h
Rattus norvegicus [3] = test: Cmax in Sprague-Dawley rat assessed as 6-(4-chlorophenyl)-3-(4-(2-hydroxy-2-methylpropoxy)-3-methoxyphenyl)pyrrolo[1,2-f][1,2,4]triazin-4(3H)-one level at 10 mg/kg, po qd at 4 hrs; format: ADME, organism-based; parameters: dose 10 mg/kg, route oral; details: in vivo
[4] = Ratio of free drug level in brain of Sprague-Dawley rat assessed as 6-(4-chlorophenyl)-3-(4-(2-hydroxy-2-methylpropoxy)-3-methoxyphenyl)pyrrolo[1,2-f][1,2,4]triazin-4(3H)-one level at 30 mg/kg, po to Ki for rat MCHR1; format: ADME, organism-based; details: in vivo
Rattus norvegicus [5] = test: Antiobesity activity in Sprague-Dawley rat assessed as body weight reduction at 3 mg/kg, po qd after 4 days relative to control; format: functional; details: 96 h
[6] = AUC (0 to 8 hrs ) in Sprague-Dawley rat at 10 mg/kg, po qd; format: ADME, organism-based; parameters: time < 8 hr, dose 10 mg/kg, route oral; details: in vivo
Rattus norvegicus [7] = test: Antiobesity activity in Sprague-Dawley rat assessed as body weight reduction at 30 mg/kg, po qd after 4 days relative to control; format: functional; details: 96 h
Liver [8] = test: Prodrug conversion in Sprague-Dawley rat liver assessed as 6-(4-chlorophenyl)-3-(4-(2,3-dihydroxypropoxy)-3-methoxyphenyl)pyrrolo[1,2-f][1,2,4]triazin-4(3H)-one formation at 10 mg/kg, po qd at 20 hrs post dose; format: ADME, organism-based; details: in vivo
Brain [9] = test: Free drug level in Sprague-Dawley rat brain assessed as 6-(4-chlorophenyl)-3-(4-(2-hydroxy-2-methylpropoxy)-3-methoxyphenyl)pyrrolo[1,2-f][1,2,4]triazin-4(3H)-one level at 10 mg/kg, po qd at 20 hrs; format: ADME, organism-based; details: in vivo
Rattus norvegicus [10] = test: AUC (0 to 8 hrs ) in Sprague-Dawley rat assessed as 6-(4-chlorophenyl)-3-(4-(2-hydroxy-2-methylpropoxy)-3-methoxyphenyl)pyrrolo[1,2-f][1,2,4]triazin-4(3H)-one level at 10 mg/kg, po qd; format: ADME, organism-based; parameters: dose 10 mg/kg, time < 8 hr, route oral; details: in vivo
Brain [11] = test: Drug concentration in Sprague-Dawley rat brain assessed as 6-(4-chlorophenyl)-3-(4-(2-hydroxy-2-methylpropoxy)-3-methoxyphenyl)pyrrolo[1,2-f][1,2,4]triazin-4(3H)-one level at 10 mg/kg, po qd at 8 hrs; format: ADME, organism-based; details: in vivo
Liver [12] = test: Prodrug conversion in Sprague-Dawley rat liver assessed as 6-(4-chlorophenyl)-3-(4-(2,3-dihydroxy-2-methylpropoxy)-3-methoxyphenyl)pyrrolo[1,2-f][1,2,4]triazin-4(3H)-one formation at 10 mg/kg, po qd at 20 hrs post dose; format: ADME, organism-based; details: in vivo
Nucleic Acid = test: Ratio of drug level in Sprague-Dawley rat brain to plasma assessed as 6-(4-chlorophenyl)-3-(4-(2-hydroxy-2-methylpropoxy)-3-methoxyphenyl)pyrrolo[1,2-f][1,2,4]triazin-4(3H)-one level at 10 mg/kg, po qd; format: ADME, organism-based
[13] = Ratio of free drug level in brain of Sprague-Dawley rat assessed as 6-(4-chlorophenyl)-3-(4-(2-hydroxy-2-methylpropoxy)-3-methoxyphenyl)pyrrolo[1,2-f][1,2,4]triazin-4(3H)-one level at 10 mg/kg, po to Ki for rat MCHR1; format: ADME, organism-based; details: in vivo
Plasma [14] = test: Plasma concentration in Sprague-Dawley rat assessed as 6-(4-chlorophenyl)-3-(4-(2-hydroxy-2-methylpropoxy)-3-methoxyphenyl)pyrrolo[1,2-f][1,2,4]triazin-4(3H)-one level at 10 mg/kg, po qd at 8 hrs; format: ADME, organism-based; details: in vivo
Brain [15] = test: Free drug level in Sprague-Dawley rat brain assessed as 6-(4-chlorophenyl)-3-(4-(2-hydroxy-2-methylpropoxy)-3-methoxyphenyl)pyrrolo[1,2-f][1,2,4]triazin-4(3H)-one level at 3 mg/kg, po qd at 20 hrs; format: ADME, organism-based; details: in vivo
Brain [16] = test: Drug concentration in Sprague-Dawley rat brain assessed as 6-(4-chlorophenyl)-3-(4-(2-hydroxy-2-methylpropoxy)-3-methoxyphenyl)pyrrolo[1,2-f][1,2,4]triazin-4(3H)-one level at 3 mg/kg, po qd at 20 hrs; format: ADME, organism-based; details: in vivo, read-out: Drug uptake
Brain [17] = test: Drug concentration in Sprague-Dawley rat brain assessed as 6-(4-chlorophenyl)-3-(4-(2-hydroxy-2-methylpropoxy)-3-methoxyphenyl)pyrrolo[1,2-f][1,2,4]triazin-4(3H)-one level at 10 mg/kg, po qd at 20 hrs; format: ADME, organism-based; details: in vivo, read-out: Drug uptake
Liver [18] = test: Prodrug conversion in Sprague-Dawley rat liver assessed as 3-(4-(6-(4-chlorophenyl)-4-oxopyrrolo[1,2-f][1,2,4]triazin-3(4H)-yl)-2-methoxyphenoxy)-2-hydroxypropanoic acid formation at 10 mg/kg, po qd at 20 hrs post dose; format: ADME, organism-based; details: in vivo
[19] = Cmax in Sprague-Dawley rat at 10 mg/kg, po qd after 1.5 hrs; format: ADME, organism-based; parameters: dose 10 mg/kg, route oral; details: in vivo
Liver [20] = test: Prodrug conversion in Sprague-Dawley rat liver assessed as 3-(4-(6-(4-chlorophenyl)-4-oxopyrrolo[1,2-f][1,2,4]triazin-3(4H)-yl)-2-methoxyphenoxy)-2-hydroxy-2-methylpropanoic acid formation at 10 mg/kg, po qd at 20 hrs post dose; format: ADME, organism-based; details: in vivo
Plasma [21] = test: Fraction unbound in Sprague-Dawley rat plasma assessed as 6-(4-chlorophenyl)-3-(4-(2-hydroxy-2-methylpropoxy)-3-methoxyphenyl)pyrrolo[1,2-f][1,2,4]triazin-4(3H)-one level; format: ADME, cell-free
Brain [22] = test: Drug concentration in Sprague-Dawley rat brain assessed as 6-(4-chlorophenyl)-3-(4-(2-hydroxy-2-methylpropoxy)-3-methoxyphenyl)pyrrolo[1,2-f][1,2,4]triazin-4(3H)-one level at 30 mg/kg, po qd at 20 hrs; format: ADME, organism-based; details: in vivo, read-out: Drug uptake
Brain [23] = test: Free drug level in Sprague-Dawley rat brain assessed as 6-(4-chlorophenyl)-3-(4-(2-hydroxy-2-methylpropoxy)-3-methoxyphenyl)pyrrolo[1,2-f][1,2,4]triazin-4(3H)-one level at 30 mg/kg, po qd at 20 hrs; format: ADME, organism-based; details: in vivo
Rattus norvegicus [24] = test: Prodrug conversion in oral-dosed Sprague-Dawley rat assessed as 6-(4-chlorophenyl)-3-(4-(2,3-dihydroxy-2-methylpropoxy)-3-methoxyphenyl)thieno[3,2-d]pyrimidin-4(3H)-one formation; format: ADME, organism-based; details: in vivo
[25] = Ratio of free drug level in brain of Sprague-Dawley rat assessed as 6-(4-chlorophenyl)-3-(4-(2-hydroxy-2-methylpropoxy)-3-methoxyphenyl)thieno[3,2-d]pyrimidin-4(3H)-one level at 10 mg/kg, po to Ki for rat MCHR1; format: ADME, organism-based; details: in vivo
Brain [26] = test: Free drug level in Sprague-Dawley rat brain assessed as 6-(4-chlorophenyl)-3-(4-(2-hydroxy-2-methylpropoxy)-3-methoxyphenyl)thieno[3,2-d]pyrimidin-4(3H)-one level at 10 mg/kg, po qd at 20 hrs; format: ADME, organism-based; details: in vivo
Plasma [27] = test: Fraction unbound in Sprague-Dawley rat plasma assessed as 6-(4-chlorophenyl)-3-(4-(2-hydroxy-2-methylpropoxy)-3-methoxyphenyl)thieno[3,2-d]pyrimidin-4(3H)-one level; format: ADME, cell-free
Rattus norvegicus [28] = test: Prodrug conversion in oral-dosed Sprague-Dawley rat assessed as 3-(4-(6-(4-chlorophenyl)-4-oxothieno[3,2-d]pyrimidin-3(4H)-yl)-2-methoxyphenoxy)-2-hydroxy-2-methylpropanoic acid formation; format: ADME, organism-based; details: in vivo
[29] = Ratio of free drug level in brain of Sprague-Dawley rat assessed as 6-(4-chlorophenyl)-3-(6-(4-hydroxypiperidin-1-yl)pyridin-3-yl)pyrrolo[1,2-f][1,2,4]triazin-4(3H)-one level at 10 mg/kg, po to Ki for rat MCHR1; format: ADME, organism-based; details: in vivo
Brain [30] = test: Free drug level in Sprague-Dawley rat brain assessed as 6-(4-chlorophenyl)-3-(6-(4-hydroxypiperidin-1-yl)pyridin-3-yl)pyrrolo[1,2-f][1,2,4]triazin-4(3H)-one level at 30 mg/kg, po qd at 20 hrs; format: ADME, organism-based; details: in vivo
Brain [31] = test: Drug concentration in Sprague-Dawley rat brain assessed as 6-(4-chlorophenyl)-3-(6-(4-hydroxypiperidin-1-yl)pyridin-3-yl)pyrrolo[1,2-f][1,2,4]triazin-4(3H)-one level at 10 mg/kg, po qd at 20 hrs; format: ADME, organism-based; details: in vivo, read-out: Drug uptake
Brain [32] = test: Drug concentration in Sprague-Dawley rat brain assessed as 6-(4-chlorophenyl)-3-(6-(4-hydroxypiperidin-1-yl)pyridin-3-yl)pyrrolo[1,2-f][1,2,4]triazin-4(3H)-one level at 3 mg/kg, po qd at 20 hrs; format: ADME, organism-based; details: in vivo, read-out: Drug uptake
Plasma [33] = test: Fraction unbound in Sprague-Dawley rat plasma assessed as 6-(4-chlorophenyl)-3-(6-(4-hydroxypiperidin-1-yl)pyridin-3-yl)pyrrolo[1,2-f][1,2,4]triazin-4(3H)-one level; format: ADME, cell-free
Brain [34] = test: Free drug level in Sprague-Dawley rat brain assessed as 6-(4-chlorophenyl)-3-(6-(4-hydroxypiperidin-1-yl)pyridin-3-yl)pyrrolo[1,2-f][1,2,4]triazin-4(3H)-one level at 3 mg/kg, po qd at 20 hrs; format: ADME, organism-based; details: in vivo
[35] = Ratio of free drug level in brain of Sprague-Dawley rat assessed as 6-(4-chlorophenyl)-3-(6-(4-hydroxypiperidin-1-yl)pyridin-3-yl)pyrrolo[1,2-f][1,2,4]triazin-4(3H)-one level at 30 mg/kg, po to Ki for rat MCHR1; format: ADME, organism-based; details: in vivo
Brain [36] = test: Drug concentration in Sprague-Dawley rat brain assessed as 6-(4-chlorophenyl)-3-(6-(4-hydroxypiperidin-1-yl)pyridin-3-yl)pyrrolo[1,2-f][1,2,4]triazin-4(3H)-one level at 30 mg/kg, po qd at 20 hrs; format: ADME, organism-based; details: in vivo, read-out: Drug uptake
Brain [37] = test: Free drug level in Sprague-Dawley rat brain assessed as 6-(4-chlorophenyl)-3-(6-(4-hydroxypiperidin-1-yl)pyridin-3-yl)pyrrolo[1,2-f][1,2,4]triazin-4(3H)-one level at 10 mg/kg, po qd at 20 hrs; format: ADME, organism-based; details: in vivo
[38] = Ratio of free drug level in brain of Sprague-Dawley rat assessed as 6-(4-chlorophenyl)-3-(6-(4-hydroxypiperidin-1-yl)pyridin-3-yl)pyrrolo[1,2-f][1,2,4]triazin-4(3H)-one level at 3 mg/kg, po to Ki for rat MCHR1; format: ADME, organism-based; details: in vivo

Ratio [1]: 3.5
Cmax (Rattus norvegicus [3]): 1570 nM
Ratio [4]: 26
AUC at 8 h [6]: 0.015 µM·h
Drug metabolism (Liver [8]): 10 µM
Drug uptake(free) (Brain [9]): 16 nM
AUC (Rattus norvegicus [10]): 8.2 µM·h
Drug uptake (Brain [11]): 4.551 µM
Drug metabolism (Liver [12]): 10 µM
BPR (Nucleic Acid): 5
Ratio [13]: 8.9
concentration (Plasma [14]): 903 nM
Drug uptake(free) (Brain [15]): 6.3 nM
concentration (Brain [16]): 1570 nM
concentration (Brain [17]): 4040 nM
Drug metabolism (Liver [18]): 2.4 µM
Cmax [19]: 5 nM
Drug metabolism (Liver [20]): 2.4 µM
Fu (Plasma [21]): 0.4%
concentration (Brain [22]): 11700 nM
Drug uptake(free) (Brain [23]): 47 nM
Structure (SMILES): COc1cc(-n2cnn3cc(-c4ccc(Cl)cc4)cc3c2=O)ccc1OCC(C)(C)OC(=O)CN
inhibition in vivo at 10 mg/kg (Rattus norvegicus [2]): 4.7%
inhibition in vivo at 3 mg/kg (Rattus norvegicus [5]): 3.6%
inhibition in vivo at 30 mg/kg (Rattus norvegicus [7]): 6.9%

Drug metabolism (Rattus norvegicus [24]): metabolite_detected
Ratio [25]: 1.6
Drug uptake(free) (Brain [26]): 11.3 nM
Fu (Plasma [27]): 0.7%
Drug metabolism (Rattus norvegicus [28]): metabolite_detected
Structure (SMILES): COc1cc(-n2cnc3cc(-c4ccc(Cl)cc4)sc3c2=O)ccc1OCC(C)(C)OC(=O)CN
inhibition in vivo at 10 mg/kg (Rattus norvegicus [2]): 6.9%

Ratio [29]: < 1.1
Drug uptake(free) (Brain [30]): < 30 nM
concentration (Brain [31]): 10100 nM
concentration (Brain [32]): 1970 nM
Fu (Plasma [33]): < 0.2%
Drug uptake(free) (Brain [34]): < 3.9 nM
Ratio [35]: < 1.7
concentration (Brain [36]): 15100 nM
Drug uptake(free) (Brain [37]): < 20 nM
Ratio [38]: < 0.2
Structure (SMILES): CC(C)[C@H](N)C(=O)OC1CCN(c2ccc(-n3cnn4cc(-c5ccc(Cl)cc5)cc4c3=O)cn2)CC1
inhibition in vivo at 10 mg/kg (Rattus norvegicus [2]): 1.3%
inhibition in vivo at 3 mg/kg (Rattus norvegicus [5]): 1.3%
inhibition in vivo at 30 mg/kg (Rattus norvegicus [7]): 2.6%
